{"source": "BindingDB's records for PubMed 7791120", "about": "(Hospital Saint-Antoine, 1995)", "note": "“And” between values parts separate entries of the source, which are not always exact repeats. Equal values may be shown once.", "data": [{"molecular_target": "Neurotensin (Cavia porcellus, UniProt P32560)", "values": [{"smiles": "COc1cccc(OC)c1-c1cc(C(=O)NC2(C(=O)O)C3CC4CC(C3)CC2C4)nn1-c1ccnc2cc(Cl)ccc12", "note": "(centres undefined)", "Ki": "0.99 nM and 2.5 nM"}, {"smiles": "COc1cccc(OC)c1-c1cc(C(=O)N[C@H](C(=O)O)C2CCCCC2)nn1-c1ccnc2cc(Cl)ccc12", "Ki": "1.7 nM and 4.5 nM"}, {"smiles": "CCC(C)C(N)C(=O)C(C)(CC(=O)C(N)CCCCN)C(C(=O)C(N)Cc1ccc(O)cc1)(C(=O)C1CCCN1)C(N)(C(=O)O)C(=O)C(N)C(C)CC", "note": "(centres undefined) [NSC_3025353]", "Ki": "1600 nM"}, {"smiles": "COc1cccc(OC)c1-c1cc(C(=O)N[C@@H](C(=O)O)C2CCCCC2)nn1-c1ccnc2cc(Cl)ccc12", "note": "[SR 49711]", "Ki": "2000 nM and 2100 nM"}]}]}
